Reference: US6713048B2, “Δ9 tetrahydrocannabinol (Δ9 THC) solution metered dose inhalers and methods of use” (Virginia Commonwealth University, priority 1998, dated 2004)

Assay: Apparent solubility of Δ^9 THC in ethanol/HFA propellant blends
Assay type: physicochemical
Text: When the propellant is a hydrofluoroalkane, it has been discovered that the propellant may be used with or without a solvent such as ethanol. Higher percentages of solvent generally allow higher levels of dissolution of Δ^9 THC. However, higher percentages of solvent also cause droplet size to increase. […] Within this range of percentages, pharmaceutically useful concentrations of Δ^9 THC can be achieved and droplet size is still small enough (<5.8 um) to provide excellent aerosol delivery of the drug. While these ratios reflect preferred embodiments of the invention, it will be recognized by those of skill in the art that the exact ratio of propellant to solvent (e.g. ethanol) may vary according to the desired final concentration of Δ^9 THC and droplet size. Any ratio of propellant to solvent that results in appropriate sized droplets and adequate dissolution of the Δ^9 THC may be used in the practice of this invention, and this will generally be in the range of from 100 to 80% propellant and 0 to 20% solvent. It is expected that a wide variety of solvents, such as ethanol, propanol, propylene glycol, glycerol, polyethylene glycol, etc. may be used in the preparation of formulations contemplated by this invention.

CCCCCc1cc(O)c2c(c1)OC(C)(C)[C@@H]1CCC(C)=C[C@@H]21 (relative stereo) [Δ^9 THC, (6aR-trans)-6a,7,8,10a-tetrahydro-6,6,9-trimethyl-3-pentyl-6H-dibenzo[b,d]-pyran-1-ol]
Apparent Solubility Mean (±SD) (5% Ethanol/95% HFA 134a): 1.585% w/w | Apparent Solubility Mean (±SD) (5% Ethanol/95% HFA 227): 1.339% w/w | Apparent Solubility Mean (±SD) (10% Ethanol/90% HFA 227): 3.240% w/w | Apparent Solubility Mean (±SD) (10% Ethanol/90% HPA 134a): 3.511 % w/w | Apparent Solubility Mean (±SD) (15% Ethanol/85% HFA 134a): 4.883% w/w | Apparent Solubility Mean (±SD) (15% Ethanol/85% HFA 227): 5.94 % w/w | Apparent Solubility Mean (±SD) (100% HFA 134a, n = 5): 0.224% w/w | Apparent Solubility Mean (±SD) (100% HFA 227): 0.147 % w/w
